Source: patent US20090203661A1, “Betulinic acid, derivatives and analogs thereof and uses therefor” (priority 2006, published 2009)

Assays:
[1] = tested on: Miapaca-2 pancreatic cancer cells; experiment: Western blot of Sp proteins in Miapaca-2 cells; type: cell-based; conditions: Miapaca-2, 24 hr
Experimental: RKO colon cancer cells were treated with BA/CN-BA for 24 hr (FIG. 15A) or 48 hr (FIG. 15B) and Miapaca-2 pancreatic cancer cells were treated with BA/CN-BA for 24 hr (FIG. 15C). Whole cell lysates were examined by Western blot analysis.

SW480 cells = experiment: Apoptosis (PARP cleavage, Western blot) in SW480 cells; type: cell-based, human; conditions: SW480, 24 hr
Experimental: Induction of KLF4 in HT-29 (FIG. 12A) and SW480 (FIG. 12B) cells. Cells were treated with different concentrations of CDODA isomers or T007 alone or in combination, and KLF4 mRNA levels were determined by real time PCR. […] KLF4 mRNA levels were not induced in SW480 cells by BA derivatives. FIGS. 12C-12D show induction of apoptosis. Panc28 (FIG. 12C) and SW480 (FIG. 12D) cells were treated for 24 hr with betulinic acid and related compounds and whole cell lysates were examined by Western blot analysis.
SW480, HT-29, HCT-15 and Panc-28 (3×10^5) colon cancer cells were seeded in 6-well tissue culture plates in DMEM/Ham's F-12 medium containing 2.5% charcoal-stripped FBS. Protein is extracted from the cells treated either with vehicle or indicated compounds suspended for 24 hr except for caveolin-1 protein which was done for 72 hr. Samples were extracted in high salt buffer [50 mmol/L HEPES, 500 mmol/L NaCl, 1.5 mmol/L MgCl2, 1 mmol/L EGTA, 10% glycerol, and 1% Triton X-100 (pH 7.5), and 5 μL/mL protease inhibitor cocktail (Sigma-Aldrich)]. Samples were incubated at 100° C. for 2 min, separated on either 10% or 12% SDS-PAGE gels and then transferred to polyvinylidene difluoride membrane (PVDF; Bio-Rad, Hercules, Calif.). […]

LNCaP cell xenografts = experiment: LNCaP xenograft in athymic nude mice; type: in vivo
Experimental: Male athymic BALB/c nude mice (age 4-6 weeks) were purchased from Harlan (Indianapolis, Ind.). LNCaP cells (1×106) were implanted with matrigel (BD Biosciences, San Jose, Calif.) subcutaneously into the flank of each mouse. Ten days after cell inoculation, animals were divided into three groups of 10 mice each. The first group received 100 μL vehicle (1% DMSO in corn oil) by oral gavage and the second and third groups of animals received 10 and 20 mg/kg/d doses of BA in vehicle every second day for 14 days (7 doses). The mice were weighed, and tumor areas were measured throughout the study. After 22 days, the animals were sacrificed, final body and tumor weights were determined and selected tissues were further examined by routine hematoxylin and eosin staining and immunohistochemical analysis.
Tissue sections ([…] thick) mounted on poly-Lysine-coated slides were deparaffinized by standard methods. Endogenous peroxidase was blocked by the use of 3% hydrogen peroxide in PBS for 10 min. Antigen retrieval for VEGF and CD31 staining was done for 10 min in 10 mmol/L sodium citrate buffer (pH 6) heated at 95° C. in a steamer followed by cooling for 15 min. […] Hematoxylin and eosin staining was determined as previously described.

LNCaP cells = experiment: Western blot analysis of protein expression in LNCaP cells; type: cell-based, Human
Experimental: Human carcinoma cell lines LNCaP (prostate) and SK-MEL2 (melanoma) were obtained from American Type Culture Collection (Manassas, Va.). Cell lines were maintained in RPMI 1640 (Sigma) supplemented with 0.22% sodium bicarbonate, 0.011% sodium pyruvate, 0.45% glucose, 0.24% HEPES, 10% FBS, and 10 mL/L of 100× Antibiotic Antimycotic solution (Sigma). Cells were maintained at 37° C. in the presence of 5% CO2.
An equal amount of cell lysate (60 μg/well) was separated by 7.5% to 12% SDS-PAGE, which was followed by immunoblotting onto polyvinylidene difluoride (Bio-Rad, Hercules, Calif.). After blocking in TBST-Blotto (10 mmol/L Tris-HCl, 150 mmol/L NaCl (pH 8.0), 0.05% Triton X-100, 5% nonfat dry milk) for 30 min, the membranes were incubated with primary antibodies overnight at 4° C. and then with horseradish peroxidase-conjugated secondary antibody for 2 hr at room temperature. Proteins were visualized using the chemiluminescence substrate (Perkin-Elmer Life Sciences) for 1 min and exposed to Kodak X-OMAT AR autoradiography film (Eastman Kodak, Rochester, N.Y.).

Row | SMILES | Sp protein expression [1] | caspase-dependent PARP cleavage (SW480 cells) | changes in organ or body weights or histopathology of liver and other tissues (LNCaP cell xenografts; 10 and 20 mg/kg/d, data not shown) | mitotic activity in tumors (LNCaP cell xenografts; treated mice, corn oil group 6-8) | concentrations inducing tumor suppressor gene KLF6 (LNCaP cells) [µM] | treatment time at which lower expression of Sp proteins is first observed (LNCaP cells; 15 μM) [h] | lowest doses at which Sp protein degradation and PARP cleavage are observed (LNCaP cells; 48 or 72 hr) [µM] | concentration inducing downregulation of Sp1, Sp3 and Sp4 proteins (LNCaP cells; 24 hr) [µM] | concentration inducing downregulation of cyclin D1 (LNCaP cells; 24 hr exposure) [µM]
1 | CC(C)C1CCC2(C(=O)O)CCC3(C)C(CCC4C5(C)C=C(C#N)C(=O)C(C)(C)C5CCC43C)C12 (stereo not drawn) [CN-BA] | decrease Sp protein expression | induced caspase-dependent PARP cleavage |  |  |  |  |  |  | 
2 | C=C(C)[C@@H]1CC[C@]2(C(=O)O)CC[C@]3(C)[C@H](CC[C@@H]4[C@@]5(C)CC[C@H](O)C(C)(C)[C@@H]5CC[C@]43C)[C@@H]12 [betulinic acid, Betulinic acid] |  |  | no treatment-related changes | 1-2 microfigures/hpf | 10 to 15 | 12 | 1 to 2.5 | 5 to 10 | ≥ 10
